From patent publication US20110039333A1, “DEFINED CONDITIONS FOR HUMAN EMBRYONIC STEM CELL CULTURE AND PASSAGE” (UNIVERSITY OF SOUTHERN CALIFORNIA, priority 2009, published 2011)

How the values were obtained:
hESC [1] = experiment: Xeno-free, feeder-free hESC culture (minimal medium development); format: cell-based, human; conditions: for maintenance of hESCs, Wnt ligand replaced by GSK-3 inhibitor: ID-8 containing medium
Description: (§1) For xeno-free, feeder-free culture, the cells were passaged into 2 μg/cm^2 human Fibronectin (Sigma), 10-20 μg/cm^2 human Laminin (Sigma) and 10 μg/cm^2 human Vitronectin (Invitrogen)-coated culture dishes and cultured in DMEM/F-12 supplement with L-glutamine, a non-essential amino acid, ITS, 20-25 ng/ml Wnt3a and 500 nM ID-8, and with or without 4 ng/ml FGF2. The culture medium was changed daily. Some of colonies became detached from the edge region 5 to 7 days after culturing, and then cells were treated with 0.5 mg/ml GRGDTP peptides (AnaSpec) or 1 μg/ml Echistatin (Sigma) and incubated at 37° C. for 15-45 minutes until almost all of the colony starts to detach from the edge region. The colonies were detached and partially dissociated into clumps by gentle pipetting, and then the clumps were washed with culture medium, collected by centrifugation and seeded on new dishes as 1 to 2 split ratio.
The development of a xeno-free, feeder-free hESC culture system using ID-8 and Wnt activation was investigated. After extensive investigation, the inventors determined that the minimal media required to maintain hESC proliferation and pluripotency consisted of DMEM/F-12 with bFGF (4 ng/ml), Wnt3a (25 ng/ml), ID-8 (0.5 μM) and Insulin-Transferrin-Selenium (ITS). […] The inventors next sought to replace the Wnt ligand with several small molecule GSK-3 inhibitors, BIO (11), CHIR99021 (22) and Kenpaullone (23) in ID-8 containing medium with or without bFGF. […] However, in contrast to Wnt ligand containing medium, hESCs became unstable after few passages, subsequently stabilized and maintained pluripotent cores were surrounded with spontaneously differentiated cells (FIG. 5). Under these conditions, manually selection of undifferentiated hESC colonies from the surrounding cells was required at every passage to maintain pluripotent cultures.
(§2) Initially, cells were maintained on Matrigel, a complex animal derived ECM. However, it would be advantageous to use a defined xeno-component-free ECM. […] Because of the extremely low level of protein in these cultures (i.e. no albumin and matrigel), the hESCs are extremely sensitive to damage caused by the dissociation enzymes normally used for passaging. […] To develop a compatible passaging process, the inventors investigated several integrin antagonists.

HES2 cells = experiment: Clonal proliferation assay, HES2 cells in MEF-CM; format: cell-based, human; conditions: for effect on hESC survival, self-renewal and differentiation: supplement in MEF-CM, colony morphology
Description: The clonal proliferation assay was described previously. Briefly, the hES cells in feeder-free culture were dissociated completely with 0.05% trypsin-EDTA.(Invitrogen), and are seeded at 10^4 cells/well in Matrigel-coated 6-well culture plates and cultured in MEF-conditioned medium. Various concentration of Wnt3a (purified in our laboratory or purchased from Peprotech), IQ-1, ID-8 and/or ICG-001 (all three chemicals were synthesized in our laboratory), were supplemented into the culture media at the onset of seeding, then continuously until the end of culturing. For all assays, the cell and colony morphology were examined under microscope, and the replating efficiency was examined by counting the number of colonies after 7 days of culture.
For quantitative PCR analysis, total RNA was isolated from hESCs cultured in feeder-free condition with or without Wnt3a and Id-8 using RNeasy micro kit (Qiagen). RT was performed with Omniscript (Qiagen) and quantitative RT-PCR was then performed, using each gene-specific primer/probe mix (TaqMan Gene Expression Assays), TaqMan 2× Master Mix, and ABI PRISM 7900 Sequence Detection system (Applied Biosystems, CA) according manufacture's protocol. The PCR data was analyzed by delta/delta OT method and normalized with PPIA expression.
The hESC colonies were fixed with 4% paraformaldehyde, and alkaline phosphatase (ALP) activity was determined with a Vector Blue Alkaline Phosphatase Substrate Kit (Vector Laboratories, CA). Immunostaining was carried out with the following primary antibodies: TRA-1-60 and TRA-1-80 (Santa Cruz Biotechnology, CA), anti-stage specific embryonic antigen (SSEA)-3 and -4 (Developmental Studies Hybridoma Bank at the University of Iowa), anti-OCT-3 (clone C-10, Santa Cruz Biotechnology, CA), or goat anti-Nanog (R&D systems, MN). Then, samples were incubated with Alexa Fluor 488- or 594-conjugated (Molecular Probes, NY), then detected with indirect immunofluorscence microscopy.
The effects of canonical Wnt ligand, Wnt3a and several small molecule Wnt signaling modulators in a clonal proliferation assay were investigated first (9) (FIG. 3A). When HES2 cells (2) were dissociated into single cells and seeded on Matrigel-coated plates in mouse embryonic fibroblast-conditioned medium (MEF-CM)(20), the colony forming efficiency was ˜0.6% (replating efficiency: colony number/seeded cell number). Supplementation with Wnt3a enhanced colony formation (˜1% at 100 ng/ml). The colonies were larger and consisted of more cells. […] ID-8, which was identified in the same screen as IQ-1 (21), also enhances the β-catenin/CBP association and increased hESC survival (˜1.1% at 0.5 μM). […] To examine the scope of this effect in hESC, clonal proliferation assays were performed with the additional hESC lines, HES3 (2) and H9 (1) (FIG. 3H).

DYRK4 = target: T1, DYRK4 (Homo sapiens, UniProt Q9NR20); experiment: ID-8 pull-down, western blotting with DYRK family antibodies; format: binding; conditions: western blotting of precipitated proteins
T1 construct: endogenous in cells
T1 sequence (Q9NR20 1-520): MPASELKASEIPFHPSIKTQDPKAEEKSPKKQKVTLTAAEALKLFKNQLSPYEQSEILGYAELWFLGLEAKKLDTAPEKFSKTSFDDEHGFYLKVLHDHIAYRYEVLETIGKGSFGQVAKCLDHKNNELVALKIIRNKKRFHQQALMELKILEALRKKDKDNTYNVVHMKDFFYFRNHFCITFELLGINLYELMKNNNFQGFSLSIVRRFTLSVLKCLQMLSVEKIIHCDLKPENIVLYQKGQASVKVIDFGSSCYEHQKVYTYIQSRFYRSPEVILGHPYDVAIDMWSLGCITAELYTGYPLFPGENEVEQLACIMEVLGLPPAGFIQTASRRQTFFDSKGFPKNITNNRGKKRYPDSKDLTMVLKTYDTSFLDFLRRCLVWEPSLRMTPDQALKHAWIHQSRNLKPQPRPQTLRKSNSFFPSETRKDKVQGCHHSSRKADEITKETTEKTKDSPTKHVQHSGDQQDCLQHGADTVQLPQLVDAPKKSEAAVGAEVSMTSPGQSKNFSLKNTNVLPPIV
Description: (§3) The cells were washed twice with 5 mL of ice-old PBS and scraped using 1 mL of PBS containing protease inhibitor cocktail (Calbiochem 539137). The cells were collected by centrifugation and the cell pellet was frozen and stocked with liquid nitrogen. Total 2 g of cell pellet was thawed on ice and then suspended in 20 mL of chilled M-Per (Pierce 78501) buffer containing 1 mM DTT and the protease inhibitor cocktail. The cell suspension was mixed and lysed on a nutator (BD Diagnostics) for 30 minutes at 4° C. The lysate was then centrifuged at 10,000 rpm for 30 minutes at 4° C., and the supernatant was divided into two equal aliquots in 50 mL centrifuge tubes. […]
(§4) After pre-treatment with free competitor ID-8 or DMSO control, the streptayidin-sepharose bound with biotinylated ID-8 was applied on the lysates. […] The specific bands lost by competitor free ID-8 was analyzed by LC/MS (LTQ-XL, Thermo Scientific).
(§5) The elution was also analyzed by or western blotting with specific antibodies against DYRK1a (Cell Signaling 2771), DYRK2 (Abeam ab37912), DYRK3 (Santa Cruz sc-66868), DYRK4 (Abeam ab37911), or HIP2K (Santa Cruz sc-100383).
(§6) ID-8 (FIG. 4A) can enhance β-catenin/CBP-mediated transcription, however, its direct molecular target(s) remained unidentified. […] To confirm this, the inventors designed miRNA to target the DYRK family and evaluated them after transfection by immunoblotting (FIG. 4D-E). […]

DYRK2 = target: T2, DYRK2 (Homo sapiens, UniProt Q92630); experiment: ID-8 affinity chromatography / pull-down with biotinylated ID-8, competition by free ID-8; format: binding; conditions: cell lysates; competition with free ID-8
T2 construct: endogenous in cells
T2 sequence (Q92630 1-601): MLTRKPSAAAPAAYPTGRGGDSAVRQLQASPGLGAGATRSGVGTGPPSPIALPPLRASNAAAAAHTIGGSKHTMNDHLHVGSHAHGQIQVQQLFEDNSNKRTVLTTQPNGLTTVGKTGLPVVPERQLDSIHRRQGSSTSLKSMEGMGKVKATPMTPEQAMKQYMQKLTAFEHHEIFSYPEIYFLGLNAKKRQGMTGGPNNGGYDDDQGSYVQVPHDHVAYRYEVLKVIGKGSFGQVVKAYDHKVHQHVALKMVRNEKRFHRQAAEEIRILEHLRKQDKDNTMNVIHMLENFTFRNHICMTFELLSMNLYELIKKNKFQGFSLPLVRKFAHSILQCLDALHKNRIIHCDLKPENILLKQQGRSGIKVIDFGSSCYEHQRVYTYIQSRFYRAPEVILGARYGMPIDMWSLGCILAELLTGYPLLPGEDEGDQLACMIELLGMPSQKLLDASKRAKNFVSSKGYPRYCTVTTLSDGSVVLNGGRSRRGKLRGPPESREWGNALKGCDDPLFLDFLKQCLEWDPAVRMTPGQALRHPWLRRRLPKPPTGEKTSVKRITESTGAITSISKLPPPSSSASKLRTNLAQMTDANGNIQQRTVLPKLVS
Description: as §3, §4, §5, §6

hESC [2] = experiment: Passaging by integrin antagonists (colony detachment); format: cell-based, human; conditions: xeno-free medium, FLV-coated dishes
Description: as §1, §2

Question: With `Cc1c[nH]c(-c2cnc(NCCNc3ccc(C#N)cn3)nc2-c2ccc(Cl)cc2Cl)n1` [CHIR90021] as the molecule, how does the “maintenance of hESCs, Wnt ligand replaced by GSK-3 inhibitor” value (shortened to “maintenance of hESCs … by GSK-3 inhibitor”) (hESC [1]; 0.2 μM plus bFGF) read?
Answer: could maintain hESCs

Question: How did the “effect on hESC survival, self-renewal and differentiation” value (HES2 cells) turn out when `O=C1[C@H](Cc2ccc(O)cc2)N2C(=O)CCN(C(=O)NCc3ccccc3)[C@H]2CN1Cc1cccc2ccccc12` [ICG-001] was run?
Answer: strongly induced cell differentiation and death

Question: For `COc1ccc(-n2c(C)c([N+](=O)[O-])c3ccc(O)cc32)cc1` [ID-8], which “maintenance of hESC colonies” value (hESC [1]; minimal medium (DMEM/F-12, bFGF, Wnt3a, ITS) without ID-8) is on record?
Answer: no colonies were maintained

Question: And the “DYRK4 in proteins precipitated with biotinylated ID-8” value (DYRK4)?
Answer: identified not only DYRK2 but also DYRK4

Question: And the “binding of DYRK2 to ID-8 affinity column” value (DYRK2)?
Answer: competed away by free ID-8

Question: What about the “replating efficiency (colony number/seeded cell number), hESC survival” value (HES2 cells; ID-8 at 0.5 μM, single cells on Matrigel in MEF-CM, control ~0.6%) of the same molecule?
Answer: ~1.1%

Question: For `CC(=O)c1ccc(NN=C(C(N)=O)C2=NC(C)(C)Cc3ccccc32)cc1` [IQ-1], which “effect on Wnt-induced differentiation” value (HES2 cells; in presence of Wnt3a, MEF-CM) is on record?
Answer: somewhat prevented Wnt-induced differentiation

Question: What about the “effect on hESC survival, self-renewal and differentiation” value (HES2 cells) of the same molecule?
Answer: did not significantly affect hESC self-renewal by itself

Question: How did the “maintenance of hESCs … by GSK-3 inhibitor” value (hESC [1]; 0.5 μM plus bFGF) turn out when `O=C1Cc2c([nH]c3ccc(Br)cc23)-c2ccccc2N1` [Kenpaullone] was run?
Answer: could maintain hESCs

Question: What about the “maintenance of hESCs … by GSK-3 inhibitor” value (hESC [1]; 1.0 μM plus bFGF) of the same molecule?
Answer: could maintain hESCs

Question: And the “maintenance of hESCs … by GSK-3 inhibitor” value (hESC [1]; 1.0 μM without bFGF)?
Answer: could maintain hESCs

Question: For Echistatin, which “colony detachment and passage of hESC” value (hESC [2]) is on record?
Answer: effectively caused colony detachment

Question: “bFGF: basic fibroblast growth factor, recombinant FGF2 (Peprotech)” was tested. Which “hESC morphology and proliferation” value (hESC [1]; bFGF removed from minimal medium) did it give?
Answer: proliferation was significantly diminished

B1: Wnt3a: canonical Wnt ligand protein, purified in the laboratory or purchased from Peprotech (protein, UniProt P56704 19-352, looked up)
Protein Wnt-3a: SYPIWWSLAVGPQYSSLGSQPILCASIPGLVPKQLRFCRNYVEIMPSVAEGIKIGIQECQHQFRGRRWNCTTVHDSLAIFGPVLDKATRESAFVHAIASAGVAFAVTRSCAEGTAAICGCSSRHQGSPGKGWKWGGCSEDIEFGGMVSREFADARENRPDARSAMNRHNNEAGRQAIASHMHLKCKCHGLSGSCEVKTCWWSQPDFRAIGDFLKDKYDSASEMVVEKHRESRGWVETLRPRYTYFKVPTERDLVYYEASPNFCEPNPETGSFGTRDRTCNVSSHGIDGCDLLCCGRGHNARAERRREKCRCVFHWCCYVSCQECTRVYDVHTCK
Question: How did the “replating efficiency (colony number/seeded cell number)” value (HES2 cells; Wnt3a at 100 ng/ml, single cells on Matrigel in MEF-CM, control ~0.6%) turn out when B1 was run?
Answer: ~1%

Question: And the “effect on hESC survival, self-renewal and differentiation” value (HES2 cells)?
Answer: enhances hESC survival and proliferation but also induces differentiation
